Source: patent US5696164A, “Antifungal treatment of nails” (Johnson & Johnson Consumer Products, Inc., priority 1994, dated 1997)
Values after ≈ are worked out from the molar mass of the structure shown. Counter-ions that a name gives are not always drawn.

Legend:
[1] = Nail swelling of human nail clippings in itraconazole formulations; settings: FIG. 3a, 32 °C, 48 h
Procedure: The experimental procedure was the following: Clean human nail clippings were equilibrated to a constant weight by placing them in a desiccator over saturated CaCl2.6H2 O solution (29% relative humidity at room temperature) for at least 48 hours before use. Approximately 30 mg of human nail clippings were weighed into a glass vial. The exact initial weight was recorded. Four grams of the test formulation (pre-warmed to 32° C.) was added into the vial and maintained at 32° C. under stirring in a Heating/Stirring Module (Reacti-Therm III, Pierce). The changes in nail weights were monitored at predetermined intervals over 48 hours. […]
The nail swelling was expressed by the percentage of the initial nail weight (i.e., 100% of the initial nail weight means no swelling, and 200% means a nail swelling doubling the original weight, etc). An enhancement factor is used to show the increase in nail swelling due to the presence of nail penetration enhancer in comparison to the control, which were calculated according to the formula: enhancement factor=(% weight gain of the test nail sample)/(% weight gain of control nail sample, i.e., no enhancer & urea in the formulation). […] The drug concentration in nail was calculated by dividing the amount of the drug in nail (mg) by the weight of the initial nail clipping (i.e., dry nail weight in gram). […]

[2] = Effect of urea on nail swelling/hydration in aqueous urea solutions; set-up: species or system human; settings: pH 4.5
Procedure: (§1) The experimental procedure was the following: Clean human nail clippings were equilibrated to a constant weight by placing them in a desiccator over saturated CaCl2.6H2 O solution (29% relative humidity at room temperature) for at least 48 hours before use. Approximately 30 mg of human nail clippings were weighed into a glass vial. The exact initial weight was recorded. Four grams of the test formulation (pre-warmed to 32° C.) was added into the vial and maintained at 32° C. under stirring in a Heating/Stirring Module (Reacti-Therm III, Pierce). The changes in nail weights were monitored at predetermined intervals over 48 hours. At the end of the swelling experiment, the nail sample was rinsed with a mixture of N,N-dimethylformamide and methanol (1:1) to remove surface-bound drug. The nail sample was then digested, and the drug concentration in nail was determined by high pressure liquid chromatography method as described by Badcock and Davies, Assay of itraconazole in nail clippings by reversed phase, high performance liquid chromatography, Ann. Clin. Biochem, 27 (1990) 506-508.
The effect of urea on nail swelling was investigated, using aqueous urea solutions of various concentrations at pH 4.5. […] For this reason, it is believed that the use of urea alone will not cause significant enhancement of drug permeation through the nail.

[3] = prior to topical treatment of onychomycosis; cited from earlier work
[4] = rats; skin pretreated with aqueous calcium thioglycolate solution; cited from earlier work
[5] = after nail avulsion; cited from earlier work
dermatophites = settings: "as low as"; cited from earlier work
yeasts = settings: "as low as"; cited from earlier work
[6] = as the formulation pH increases; cited from earlier work
[7] = calcium thioglycolate added directly into ointment; cited from earlier work
[8] = Nail swelling-pH profile (urea/propylene carbonate/propylene glycol/N-acetyl-l-cysteine/water); set-up: species or system human; settings: FIG. 8; pH 3.2-7.0, 32 °C
Procedure: as §1
It should be noted that, unlike the itraconazole formulations discussed above, which were tested at pH 3, the pH value of the miconazole nitrate formulation was set at pH 9. […] This was confirmed by the swelling-pH profile shown in FIG. 8, using the following formulation: […]

[9] = Nail swelling in miconazole nitrate cream formulation; set-up: species or system human; settings: FIG. 7; 1% miconazole nitrate, 20% urea, 10% N-acetyl-l-cysteine cream, pH 9.0
Procedure: as §1
(§2) A nail swelling and drug partitioning experiment was also conducted for miconazole nitrate using procedures analogous to those described above. […]

[10] = Miconazole nitrate partitioning into nail; format: in vitro ADME, human; settings: FIG. 7; 1% miconazole nitrate, 20% urea, 10% N-acetyl-l-cysteine cream, pH 9.0
Procedure: as §1, §2

N[C@@H](CS)C(=O)O [l-cysteine]
rank of nail swelling enhancement [1]: highest nail swelling enhancement

NC(N)=O [urea]
nail hydration ([2]; 20% aqueous urea): 30% | nail hydration ([2]; 40% aqueous urea): 50% | results of nonsurgical avulsion of nail dystrophies [3]: satisfactory results

insulin
transdermal drug permeation [4]: enhanced transdermal drug permeation

CC(=O)N1CCN(c2ccc(OCC3COC(Cn4ccnc4)(c4ccc(Cl)cc4Cl)O3)cc2)CC1 (centres unmarked) [ketoconazole]
efficacy in topically treating onychomycosis [5]: effective

CCC(C)n1ncn(-c2ccc(N3CCN(c4ccc(OCC5COC(Cn6cncn6)(c6ccc(Cl)cc6Cl)O5)cc4)CC3)cc2)c1=O (centres unmarked) [itraconazole]
minimal inhibitory concentration (MIC) (dermatophites): 0.1 µg/mL (≈ 0.142 µM) | minimal inhibitory concentration (MIC) (yeasts): 0.1 µg/mL (≈ 0.142 µM) | solubility versus formulation pH [6]: decreases

Clc1ccc(COC(Cn2ccnc2)c2ccc(Cl)cc2Cl)c(Cl)c1 (centres unmarked) [miconazole]
efficacy in topically treating onychomycosis [5]: effective

COc1ccc2c(c1)c(CC(=O)O)c(C)n2C(=O)c1ccc(Cl)cc1 [calcium salt of indomethacin, indomethacin]
drug absorption [7]: dramatically decreased the absorption

CC(=O)N[C@@H](CS)C(=O)O [N-acetyl-l-cysteine, N-Acetyl-l-cysteine]
working pH range [8]: wide working pH range

Clc1ccc(COC(Cn2ccnc2)c2ccc(Cl)cc2Cl)c(Cl)c1 (centres unmarked) [miconazole nitrate]
nail swelling [9]: significant nail swelling | miconazole partitioning into the nail [10]: substantial miconazole partitioning into the nail
